Holding throughout (assay type): biochemical
For assay [1], the target named is T1, recombinant human 17β-HSD1 (Homo sapiens, UniProt P14061).
T1 construct: made in house; host or cells: Sd9 (Sf9) insect cells, baculovirus (Bac to Bac Expression System)
T1 sequence (P14061 1-328): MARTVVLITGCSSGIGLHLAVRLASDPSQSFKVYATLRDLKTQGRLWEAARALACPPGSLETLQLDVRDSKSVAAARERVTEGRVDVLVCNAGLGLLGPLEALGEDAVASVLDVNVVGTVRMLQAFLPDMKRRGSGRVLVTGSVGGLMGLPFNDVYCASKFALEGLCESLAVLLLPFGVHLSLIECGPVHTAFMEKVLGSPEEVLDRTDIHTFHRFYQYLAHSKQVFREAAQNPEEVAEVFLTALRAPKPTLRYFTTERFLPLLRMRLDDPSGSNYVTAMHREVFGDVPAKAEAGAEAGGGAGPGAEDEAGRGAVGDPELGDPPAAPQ
The assay is described as follows: Inhibition of recombinant human 17β-HSD1. The conditions noted are these: inhibitor 100 nM; 30 nM estrone, 1 mM NADPH, 30 min RT. As to the method:
17β-HSD1 production and isolation: Recombinant baculovirus was generated by the “Bac to Bac Expression System” (Invitrogen). Recombinant bacmid was transfected to Sd9 insect cells using “Cellfectin Reagent” (Invitrogen). 60 h later cells were harvested; the microsomal fraction was isolated as described by Puranen, T. J., Poutanen, M. H., Peltoketo, H. E., Vihko, P. T. and Vihko, R. K. (1994) Site-directed mutagenesis of the putative active site of human 17 β-hydroxysteroid dehydrogenase type 1. Biochem. J. 304: 289-293. Aliquots were stored frozen until determination of enzymatic activity.
Assay—Inhibition of recombinant human 17β-HSD1: Recombinant protein (1 μg/ml) was incubated in 20 mM KH2PO4 pH 7.4 with 30 nM estrone (including 800 000 cpm/ml of ^3H-estrone) and 1 mM NADPH for 30 min at RT, in the presence of the potential inhibitor at concentrations 1 μM or 0.1 μM. Inhibitor stock solutions were prepared in DMSO. Final concentration of DMSO was adjusted to 1% in all samples. The enzyme reaction was stopped by addition of 10% trichloroacetic acid (final concentration). Samples were centrifuged in a microtiter plate at 4000 rpm for 10 min. Supernatants were applied to reverse phase HPLC on a Waters Symmetry C18 column, equipped with a Waters Sentry Guard column. Isocratic HPLC runs were performed at RT at a flow rate of 1 ml/min in acetonitrile:water 48:52 as running solvent. Radioactivity was monitored in the eluate by a Scintillation Analyzer. Total radioactivity for estrone and estradiol were determined in each sample and percent conversion of estrone to estradiol was calculated according to the following formula:
(§1) [formula] Percent inhibition was calculated flowingly: % inhibition=100−% conversion

For assay [2], the target named is T2, recombinant human 17β-HSD2 (Homo sapiens, UniProt P37059).
T2 construct: made in house; host or cells: Sd9 (Sf9) insect cells, baculovirus (Bac to Bac Expression System)
T2 sequence (P37059 1-387): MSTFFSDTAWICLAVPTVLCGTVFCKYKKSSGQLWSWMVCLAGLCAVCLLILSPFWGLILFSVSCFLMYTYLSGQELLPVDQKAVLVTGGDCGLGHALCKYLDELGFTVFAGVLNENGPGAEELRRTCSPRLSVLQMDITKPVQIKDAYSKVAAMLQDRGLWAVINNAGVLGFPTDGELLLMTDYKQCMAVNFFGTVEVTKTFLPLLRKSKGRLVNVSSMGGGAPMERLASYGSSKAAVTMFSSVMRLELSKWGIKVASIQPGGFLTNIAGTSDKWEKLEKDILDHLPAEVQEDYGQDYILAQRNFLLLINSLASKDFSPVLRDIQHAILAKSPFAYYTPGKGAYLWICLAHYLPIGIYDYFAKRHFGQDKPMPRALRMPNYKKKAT
Nature of the assay: Inhibition of recombinant human 17β-HSD2. The conditions noted are these: inhibitor 1 μM; 50 nM estradiol, 1 mM NADH, 30 min RT. As to the method:
17β-HSD2 production and isolation: Similarly to 17β-HSD1 the Recombinant baculovirus was generated by the “Bac to Bac Expression System” (Invitrogen). Recombinant bacmid was transfected to Sd9 insect cells using “Cellfectin Reagent” (Invitrogen). 60 h later cells were harvested and supernatant were fractionated by the following protocol: • cells were dissolved into 40 ml of A-buffer (40 mM TRIS, pH 8.0, 20% glycerol, 20 μM NAD, 0.4 mM PMSF, 150 mM NaCl, 0.5% dodecyl-β-maltoside+protease inhibitor cocktail) • cells were sonicated • lysate was incubated on ice for 15 min • lysate was centrifuged 5000 rpm 15 min, +4° C. • centrifugation of the supernatant 180 000 g 30 min, +4° C. • pellet was dissolved into 8 ml of A-buffer • not resuspended material was removed by centrifugation 5000 rpm min, +4° C. • the clear supernatant was divided into 100 μl aliquots and were stored frozen until determination of enzymatic activity.
The amount of 17β-HSD2 was analysed by immunoblotting and total protein concentration of each extract batch was determined.
Assay—Inhibition of recombinant human 17β-HSD2: Recombinant protein (4 μg/ml) was incubated in 20 mM KH2PO4 pH 8.5 with 50 nM estradiol (including 800 000 cpm/ml of ^3H-estradiol) and 1 mM NADH for 30 min at RT, in the presence of the potential inhibitor at concentrations 1 μM or 0.1 μM. Inhibitor stock solutions were prepared in DMSO. Final concentration of DMSO was adjusted to 1% in all samples. The enzyme reaction was stopped by addition of 10% trichloroacetic acid (final concentration). Samples were centrifuged in a microtiter plate at 4000 rpm for 10 min. Supernatants were applied to reverse phase HPLC on a Waters Symmetry C18 column, equipped with a Waters Sentry Guard column. Isocratic HPLC runs were performed at RT at a flow rate of 1 ml/min in acetonitrile:water 48:52 as running solvent. Radioactivity was monitored in the eluate by a Scintillation Analyzer. Total radioactivity for estrone and estradiol were determined in each sample and percent conversion of estradiol to estrone was calculated according to the following formula:
as §1

Assay [3] relates to HSD1 enzyme that is expressed in rabbit placenta tissue. Nature of the assay: Inhibition of E1 to E2 conversion in rabbit placenta tissue homogenate. Conditions: inhibitor 100 nM, 30 nM estrone, 30 min. As to the method: The assay is based on an enzymatic reaction where HSD1 enzyme that is expressed in rabbit placenta tissue converts its natural substance estrone (E1) to estradiol (E2) in the presence of a co-factor β-NADPH.
Homogenization of rabbit placenta tissue: Weight a piece of the frozen tissue into a Precellys ck28 bead tube. Add buffer solution (20 mM KH2PO4 with 1 mM EDTA, pH 7,4) in 1:2 ratio (e.g. 300 mg of tissue:600 μl reaction buffer solution). Insert the bead tubes to homogenizer and homogenize 2×30 s. 6000 rpm. Centrifugated 5 min., 2600 rpm at +4° C. and collect supernatant. Aliquots of homogenate are stored in −80° C.
Assay—Inhibition of E1 to E2 conversion in rabbit placenta tissue: The reaction takes place in a buffer solution (20 mM KH2PO4 with 1 mM EDTA, pH 7,4), including appropriate amount of rabbit placenta homogenate, co-factor (1 mM β-NADPH), Substrate (30 nM estrone), labelled substrate as tracer (5 nM [^3H]-estrone). During a 30-minute incubation part of the estrone is converted to estradiol. The reaction is stopped by lowering the pH to 1 with 10% trichloro acetic acid (TCA). The substrate and conversion products are analyzed by HPLC and a Scintillation counter analyzer. Total radioactivity for estrone and estradiol were determined in each sample and percent conversion of estrone to estradiol was calculated according to the following formula:
Percent inhibition was calculated flowingly: % inhibition=100−% conversion.

The structures appear in SMILES notation.

Results on 11 compounds are retold here after patent publication US20240309043A1, “THERAPEUTICALLY ACTIVE STEROIDAL DERIVATIVES” (Organon R&D Finland Ltd., priority 2017, published 2024).

One may read the inhibition as the relative decrease from the control value, in per cent. In the case of `CCN(CC)C(=O)CC[C@@H]1C/C(=N\O)[C@@]2(C)CCC3c4ccc(F)cc4CCC3C12` (stereo partly drawn) [Compound 40, N,N-diethyl-3-((13S,15R,E)-3-fluoro-17-(hydroxyimino)-13-methyl-7,8,9,11,12,13,14,15,16,17-decahydro-6H-cyclopenta[a]phenanthren-15-yl)propanamide], the inhibition at 0.1 µM in assay [1] was 46%. Besides, in assay [2], the inhibition at 1 µM came out at 6%. Besides, in assay [3], the “Rabbit placenta inhibition % @100 nM” value came to 6%.

Take `C[C@]12CCC3c4cccc(F)c4CCC3C1[C@H](CCC(=O)N1CCCC1)C/C2=N\O` (stereo partly drawn) [Compound 14, 3-((13S,15R,E)-4-fluoro-17-(hydroxyimino)-13-methyl-7,8,9,11,12,13,14,15,16,17-decahydro-6H-cyclopenta[a]phenanthren-15-yl)-1-(pyrrolidin-1-yl)propan-1-one]: in assay [1], the inhibition at 0.1 µM came out at 53%. The inhibition at 1 µM in assay [2] was 4%. The “Rabbit placenta inhibition % @100 nM” value in assay [3] was determined as 14%.

Regarding `COc1ccc(NC(=O)CC[C@@H]2C/C(=N\O)[C@@]3(C)CCC4c5ccc(F)cc5CCC4C23)nc1` (stereo partly drawn) [Compound 28, 3-((13S,15R,E)-3-fluoro-17-(hydroxyimino)-13-methyl-7,8,9,11,12,13,14,15,16,17-decahydro-6H-cyclopenta[a]phenanthren-15-yl)-N-(5-methoxypyridin-2-yl)propanamide], the inhibition at 0.1 µM in assay [1] is 74%. In addition, the inhibition at 1 µM in assay [2] was 7%. For the same compound, the “Rabbit placenta inhibition % @100 nM” value in assay [3] was determined as 48%.

Turning to `Cc1ccc(NC(=O)CC[C@@H]2C/C(=N\O)[C@@]3(C)CCC4c5ccc(F)cc5CCC4C23)nn1` (stereo partly drawn) [Compound 32, 3-((13S,15R,E)-3-fluoro-17-(hydroxyimino)-13-methyl-7,8,9,11,12,13,14,15,16,17-decahydro-6H-cyclopenta[a]phenanthren-15-yl)-N-(6-methylpyridazin-3-yl)propanamide], in assay [1], the inhibition at 0.1 µM was determined as 35%. Also, the inhibition at 1 µM in assay [2] was found to be 9%. Moreover, the “Rabbit placenta inhibition % @100 nM” value in assay [3] was determined as 55%.

In the case of `C[C@]12CCC3c4ccccc4CCC3C1[C@H](CCC(=O)Nc1cc(F)ccn1)C/C2=N\O` (stereo partly drawn) [Compound 158, N-(4-fluoropyridin-2-yl)-3-((13S,15R,E)-17-(hydroxyimino)-13-methyl-7,8,9,11,12,13,14,15,16,17-decahydro-6H-cyclopenta[a]phenanthren-15-yl)propanamide], in assay [1], the inhibition at 0.1 µM was found to be 36%. Besides, the inhibition at 1 µM in assay [2] stood at 4%. Further, the “Rabbit placenta inhibition % @100 nM” value in assay [3] worked out at 12%.

`C[C@]12CCC3c4cccc(F)c4CCC3C1[C@H](CCC(=O)Nc1cc3c([nH]c1=O)CCCC3)C/C2=N\O` (stereo partly drawn) [Compound 178, 3-((13S,15R,E)-4-fluoro-17-(hydroxyimino)-13-methyl-7,8,9,11,12,13,14,15,16,17-decahydro-6H-cyclopenta[a]phenanthren-15-yl)-N-(2-oxo-12,5,6,7,8-hexahydroguinolin-3-yl)propanamide]: in assay [1], the inhibition at 0.1 µM came to 95%. Further, in assay [2], the inhibition at 1 µM is 9%.

Take `C[C@]12CCC3c4cccc(F)c4CCC3C1[C@H](CCC(=O)NC1COC1)C/C2=N\O` (stereo partly drawn) [Compound 10, 3-((13S,15R,E)-4-fluoro-17-(hydroxyimino)-13-methyl-7,8,9,11,12,13,14,15,16,17-decahydro-6H-cyclopenta[a]phenanthren-15-yl)-N-(oxetan-3-yl)propanamide]: in assay [1], the inhibition at 0.1 µM was found to be 30%. In assay [2], the inhibition at 1 µM came out at 5%. The “Rabbit placenta inhibition % @100 nM” value in assay [3] was determined as 18%.

As for `CN(C(=O)CC[C@@H]1C/C(=N\O)[C@@]2(C)CCC3c4cccc(F)c4CCC3C12)C1COC1` (stereo partly drawn) [Compound 12, 3-((13S,15R,E)-4-fluoro-17-(hydroxyimino)-13-methyl-7,8,9,11,12,13,14,15,16,17-decahydro-6H-cyclopenta[a]phenanthren-15-yl)-N-methyl-(oxetan-3-yl)propanamide], the inhibition at 0.1 µM in assay [1] stood at 73%. In addition, the inhibition at 1 µM in assay [2] is 2%.

As for `C[C@]12CCC3c4ccc(F)cc4CCC3C1[C@H](CCC(=O)Nc1nncs1)C/C2=N\O` (stereo partly drawn) [Compound 38, 3-((13S,15R,E)-3-fluoro-17-(hydroxyimino)-13-methyl-7,8,9,11,12,13,14,15,16,17-decahydro-6H-cyclopenta[a]phenanthren-15-yl)-N-(1,3,4-thiadiazol-2-yl)propanamide], the inhibition at 0.1 µM in assay [1] came to 21%. Also, the inhibition at 1 µM in assay [2] came out at 3%.

For the compound `C[C@]12CCC3c4cccc(F)c4CCC3C1[C@H](CCC(=O)Nc1ccccn1)C/C2=N\O` (stereo partly drawn) [Compound 138, 3-((13S,15R,E)-4-fluoro-17-(hydroxyimino)-13-methyl-7,8,9,11,12,13,14,15,16,17-decahydro-6H-cyclopenta[a]phenanthren-15-yl)-N-(pyridin-2-yl)propanamide], the inhibition at 0.1 µM in assay [1] was 89%. Besides, the “Rabbit placenta inhibition % @100 nM” value in assay [3] is listed as 36%.

As for `C[C@]12CCC3c4ccc(F)cc4CCC3C1[C@H](CCC(=O)Nc1cccnn1)C/C2=N\O` (stereo partly drawn) [Compound 34, 3-((13S,15R,E)-3-fluoro-17-(hydroxyimino)-13-methyl-7,8,9,11,12,13,14,15,16,17-decahydro-6H-cyclopenta[a]phenanthren-15-yl)-N-(pyridazin-3-yl)propanamide], in assay [1], the inhibition at 0.1 µM was found to be 23%. For the same compound, in assay [2], the inhibition at 1 µM was 9%.
